Results taken from patent publication US20090042969A1, “Use of Specific Trifluoromethyl Ketones for Preventing and Treating Pancreatitis” (priority 2005, published 2009).
Entries after “also recorded” stand apart in the source; their conditions may differ. Read-outs that look alike come from different tables or passages of the source.

How the values were obtained:
[1] = target: T1, human neutrophil elastase (Homo sapiens, UniProt P08246); assay: In vitro inhibitor specificity: neutrophil elastase activity; type: biochemical
T1 construct: This commercial product was purified from human serum by HPLC; purchased Calbiochem; host or cells: purified from human serum
T1 sequence (P08246 30-267): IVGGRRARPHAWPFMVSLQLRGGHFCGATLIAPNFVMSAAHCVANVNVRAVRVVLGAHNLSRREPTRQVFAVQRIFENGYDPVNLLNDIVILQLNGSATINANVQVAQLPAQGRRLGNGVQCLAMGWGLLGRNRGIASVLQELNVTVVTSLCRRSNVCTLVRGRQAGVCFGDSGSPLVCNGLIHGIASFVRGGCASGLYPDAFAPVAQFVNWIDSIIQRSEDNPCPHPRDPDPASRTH
Method: Human neutrophil elastase was purchased from Calbiochem (San Diego, Calif., U.S.A.). This commercial product was purified from human serum by HPLC (protein concentration >20 units/mg of protein specific activity; in 50 mM sodium acetate pH 5.5 and 200 mM sodium chloride; purity >95%). […] Porcine pancreatic elastase was purchased from Calbiochem and was purified from porcine pancreas. The specific activity was 50 units/mg of protein in 50 mM potassium phosphate buffer, pH 7.0. […]

pancreatic elastase = target: T2, pancreatic elastase (Sus scrofa, UniProt P00772); assay: In vitro inhibitor specificity: pancreatic elastase activity; type: biochemical, porcine
T2 construct: was purified from porcine pancreas; purchased Calbiochem; host or cells: purified from porcine pancreas
Method: (§1) Caerulein was obtained from Pharmacia, Freiburg, Germany. Human neutrophil elastase was purchased from Calbiochem (San Diego, Calif., U.S.A.). This commercial product was purified from human serum by HPLC (protein concentration >20 units/mg of protein specific activity; in 50 mM sodium acetate pH 5.5 and 200 mM sodium chloride; purity >95%). Human myeloperoxidase was purchased from Calbiochem and purified from blood by HPLC (1 mg/10 ml protein concentration, 150 to 200 units mg protein specific protein activity, in 100 mM sodium chloride, 50 mM sodium acetate, purity >95%). Porcine pancreatic elastase was purchased from Calbiochem and was purified from porcine pancreas. […]
(§2) The trypsin activity (10 mU), myeloperoxidase activity (100 mU) and the neutrophil elastase activity (10 mU) was determined by using the specific fluorogenic substrates [CBZ-Ile-Pro-Arg]2-rhodamine 110 or [CBZ-Ala4]-aminomethylcoumarin (AMC) in 100 mM tris-HCl buffer (pH 8.0), which contained 5 mM CaCl2, 10 μM substrate (final concentration) and 10 mU of bovine trypsin in a volume of 150 μl, at an excitation wavelength of 485 nm and an emission wavelength of 530 nm or an excitation wavelength of 350 nm and an emission wavelength of 460 nm at 37° C. The initial rates of the substrate hydrolysis were measured as arbitrary fluorescence units per minute. […]

trypsin = target: T3, trypsin (Bos taurus, UniProt P00760); assay: In vitro inhibitor specificity: trypsin activity; type: biochemical, bovine; settings: compound II 1 nM to 1 mM
T3 sequence (P00760 24-246): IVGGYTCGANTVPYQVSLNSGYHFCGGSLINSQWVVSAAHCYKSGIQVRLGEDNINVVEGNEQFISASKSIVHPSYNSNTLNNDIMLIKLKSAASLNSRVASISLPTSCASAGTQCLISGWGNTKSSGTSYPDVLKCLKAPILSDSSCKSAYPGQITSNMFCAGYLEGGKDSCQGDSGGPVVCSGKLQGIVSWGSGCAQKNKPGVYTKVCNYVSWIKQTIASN
Method: The trypsin activity (10 mU), myeloperoxidase activity (100 mU) and the neutrophil elastase activity (10 mU) was determined by using the specific fluorogenic substrates [CBZ-Ile-Pro-Arg]2-rhodamine 110 or [CBZ-Ala4]-aminomethylcoumarin (AMC) in 100 mM tris-HCl buffer (pH 8.0), which contained 5 mM CaCl2, 10 μM substrate (final concentration) and 10 mU of bovine trypsin in a volume of 150 μl, at an excitation wavelength of 485 nm and an emission wavelength of 530 nm or an excitation wavelength of 350 nm and an emission wavelength of 460 nm at 37° C. The initial rates of the substrate hydrolysis were measured as arbitrary fluorescence units per minute. The cathepsin B activity (100 mU) and cathepsin L activity (100 mU) were then determined in 0.25 M sodium acetate buffer (pH 5.0), which contained 2 mM EDTA 1 mM DTT, 10 μM of the specific substrate CBZ-[Arg]2-aminomethylcoumarin or 10 μM [CBZ-Phe-Arg]-rhodamine 110 (final concentration) in a final volume of 150 μl, at an excitation wavelength of 350 nm and an emission wavelength of 460 nm or 485 nm and an emission wavelength of 530 nm at 37° C.
The results were calculated in percent of the initial enzyme activity (Kukor et al., 2002).

myeloperoxidase = target: T4, myeloperoxidase (Homo sapiens, UniProt P05164); assay: In vitro inhibitor specificity: myeloperoxidase activity; type: biochemical; settings: compound II 1 nM to 1 mM
T4 construct: purified from blood by HPLC; purchased Calbiochem; host or cells: purified from blood
Method: as §1, §2

cathepsin B = target: T5, cathepsin B (Homo sapiens, UniProt P07858); assay: In vitro inhibitor specificity: cathepsin B activity; type: biochemical; settings: compound II 1 nM to 1 mM
T5 construct: This commercial product was purified from human liver by HPLC; purchased Calbiochem; host or cells: purified from human liver

cathepsin L = target: T6, cathepsin L (Homo sapiens, UniProt P07711); assay: In vitro inhibitor specificity: cathepsin L activity; type: biochemical; settings: compound II 1 nM to 1 mM
T6 construct: prepared from human liver; purchased Calbiochem; host or cells: prepared from human liver

[2] = Pharmacokinetics (half-life, AUC, bioavailability); parameters: species or system rats, hamsters and dogs; settings: rat, hamster, dog, in vivo
neutrophil elastase = assay: Inhibition of neutrophil elastase after oral or intravenous administration; type: in vivo
[3] = system: caerulein-induced pancreatitis; assay: Pancreatic water content (edema) in caerulein-induced pancreatitis; type: in vivo, rat; settings: oral 240 mg/kg per day
Method: (§3) Male Wistar rats (140 to 250 g) were anesthetized with pentobarbital (30 mg/kg). A cannula was placed in the jugular vein, and a supramaximal concentration of caerulein (10 μg/kg per hour) was administered to the animals by infusion for four and twelve hours. […] Animals which received a saline solution as infusion and were fed with compound II through a tube served as control. Each treatment group consisted of five animals. After the exsanguination under ether anesthesia, the pancreas was quickly removed and freed of fat, and tissue blocks were fixed in 5% paraformaldehyde for the histology in paraffin-embedded sections. The largest portion of the pancreas was frozen in liquid nitrogen and stored at −80° C. for later protein analysis and for detection of the enzyme activity.
(§4) The animals were sacrificed after four and twelve hours, and pancreatic tissue, serum and lung tissue were collected for further analyses (see FIG. 2).
Determination of the pancreatic water content: the water content of the pancreas was determined by comparing the freshly obtained tissue (wet weight) with the weight of the same sample after drying (dry weight). In order to ensure complete drying, the tissue was incubated at […] for 24 hours, a constant weight being reached. The results were represented as percentage of the difference between the wet weight and the dry weight divided by the original wet weight.

[4] = system: caerulein-induced pancreatitis; assay: Myeloperoxidase activity in pancreatic homogenates in caerulein-induced pancreatitis; type: in vivo, rat; settings: oral 240 mg/kg per day
Method: as §3, §4
To measure the myeloperoxidase (MPO) activity, the tissue was thawed and homogenized on ice in 20 mM potassium phosphate buffer (pH 7.4) and centrifuged at 20 000 g at 4° C. for 10 minutes. The pellet was resuspended in […] potassium phosphate buffer (pH 6.0) which contained 0.5% cethyltrimethylammonium bromide. […]
The original increase in the absorption at 450 nm was measured at room temperature using a Dynatech MR 5000 ELISA reader. […]

[5] = system: caerulein-induced pancreatitis; assay: Morphological damage of the pancreas in caerulein-induced pancreatitis; type: in vivo, rat
Method: as §3, §4

[6] = system: caerulein-induced pancreatitis; assay: Serum amylase activity (hyperamylasemia) in caerulein-induced pancreatitis; type: in vivo, rat; settings: oral administration; four and twelve hours of pancreatitis
Method: as §3, §4

[7] = system: caerulein-induced pancreatitis; assay: Myeloperoxidase activity and morphology of the lung during caerulein-induced pancreatitis; type: in vivo, rat
Method: as §3, §4
Pancreatitis influences not only the pancreas but also leads to a systemic inflammatory response which affects other organs such as the kidneys or the lung. […] The morphological differences in the lung tissues during caerulein-induced pancreatitis consisted of accumulations of alveolar fluid and a progressive thickening, hyperemia and neutrophil infiltration of the intraalveolar tissue. […]

[8] = compound II together with caerulein

T4 sequence (P05164 279-745 limits assumed): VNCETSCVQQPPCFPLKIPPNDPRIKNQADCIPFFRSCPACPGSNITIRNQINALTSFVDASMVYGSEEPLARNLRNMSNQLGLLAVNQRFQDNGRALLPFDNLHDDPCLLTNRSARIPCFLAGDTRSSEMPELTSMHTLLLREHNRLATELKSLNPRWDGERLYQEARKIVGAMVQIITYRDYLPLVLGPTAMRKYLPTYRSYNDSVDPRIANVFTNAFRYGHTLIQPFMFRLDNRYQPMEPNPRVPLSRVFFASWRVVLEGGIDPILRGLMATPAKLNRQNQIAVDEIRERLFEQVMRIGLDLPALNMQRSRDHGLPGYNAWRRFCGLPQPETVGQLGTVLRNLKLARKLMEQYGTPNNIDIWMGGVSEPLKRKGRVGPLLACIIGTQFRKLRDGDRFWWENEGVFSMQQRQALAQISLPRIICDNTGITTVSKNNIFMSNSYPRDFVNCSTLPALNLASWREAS
T4 sequence (P05164 165-273 limits assumed): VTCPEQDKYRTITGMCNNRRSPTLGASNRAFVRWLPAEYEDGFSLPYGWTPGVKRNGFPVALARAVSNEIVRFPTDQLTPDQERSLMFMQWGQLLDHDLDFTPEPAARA
T6 sequence (P07711 114-333): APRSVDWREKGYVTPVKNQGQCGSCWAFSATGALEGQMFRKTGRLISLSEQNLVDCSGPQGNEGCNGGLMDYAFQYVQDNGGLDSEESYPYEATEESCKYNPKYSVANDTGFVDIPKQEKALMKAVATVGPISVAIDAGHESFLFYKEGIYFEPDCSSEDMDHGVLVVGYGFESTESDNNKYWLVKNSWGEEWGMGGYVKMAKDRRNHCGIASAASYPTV
T2 sequence (P00772 27-266): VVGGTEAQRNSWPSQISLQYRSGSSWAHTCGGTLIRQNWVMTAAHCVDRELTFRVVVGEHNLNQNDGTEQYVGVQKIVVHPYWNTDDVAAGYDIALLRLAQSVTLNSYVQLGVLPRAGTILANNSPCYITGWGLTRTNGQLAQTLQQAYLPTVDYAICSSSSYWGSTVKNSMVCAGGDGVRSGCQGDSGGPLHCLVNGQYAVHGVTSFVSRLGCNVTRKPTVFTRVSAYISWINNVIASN

In the case of `COc1ccc(C(=O)N[C@H](C(=O)N2CCC[C@H]2C(=O)N[C@H](C(=O)C(F)(F)F)C(C)C)C(C)C)cc1` [compound II], the “inhibitory activity for human neutrophil elastase by comparison with pancreatic elastase” value [1] is reported as “five times higher”, the Ki (pancreatic elastase) is reported as 0.2 µM and the IC50 (pancreatic elastase; FIG. 1) is reported as 1 µM. The “influence on trypsin activity” value (trypsin) was “not significantly influenced”, the “influence on trypsin activity” value (trypsin; listed as Compound II) was “does not inhibit” and the “influence on myeloperoxidase activity” value (myeloperoxidase) was “not significantly influenced; also recorded: excluded”. The “influence on myeloperoxidase activity” value (myeloperoxidase; listed as Compound II) was “does not inhibit”, the “influence on cathepsin B activity” value (cathepsin B) was “not significantly influenced” and the “influence on cathepsin B activity” value (cathepsin B; listed as Compound II) was “does not inhibit”. For the same molecule, the “influence on cathepsin L activity” value (cathepsin L) was “not significantly influenced”, the “influence on cathepsin L activity” value (cathepsin L; listed as Compound II) was “does not inhibit” and the AUC ([2]; intravenous, read-out: intravenous AUC) was 1360 to 3180 ng·h/mL. The bioavailability ([2]; oral versus intravenous AUC, read-out: percentage bioavailability) was 26 to 82%, the AUC ([2]; oral, read-out: oral bioavailability (AUC)) was 355 to 1400 ng·h/mL and the half-life ([2]; rats, hamsters and dogs, read-out: biological half-life) was 0.82 to 2 h. The “dose to inhibit 50% of the enzyme activity” value (neutrophil elastase; intravenous administration) was 0.59 mg/kg of body weight, the “dose to inhibit 50% of the enzyme activity” value (neutrophil elastase; oral administration) was 4.9 mg/kg of body weight and the “inhibition of neutrophil elastase” value (neutrophil elastase; oral administration of 10 mg/kg of body weight) was 84%. The “change in the water content of the pancreas” value ([3]; compound II alone (control 2), no caerulein) was “did not lead to a significant change”, the “formation of pancreatic edemas (water content)” value ([3]; four and twelve hours after starting caerulein infusion) was “significant reduction” and the “reduction in MPO activity in pancreatic tissue” value [4] was “more than 50%”. For the same molecule, the “morphological changes like those observed in acute pancreatitis” value ([5]; compound II alone, no caerulein) was “did not lead to any morphological changes”, the “development of the interstitial edema and the intracellular vacuolization” value [5, 8] was “prevented” and the “number of infiltrating inflammatory cells in pancreas” value [5, 8] was “greatly reduced”. The “amylase activity in serum” value [6] was “significantly reduced”, the “morphological differences in lung tissue (alveolar fluid, thickening, hyperemia, neutrophil infiltration)” value [7] was “reduced” and the “MPO activity in lung tissue” value ([7]; effect greater after twelve than four hours) was “significant reduction”.
